Assay results: US20260078120A1, “SUBSTITUTED PYRIDOPYRIMIDINONES” (MIRATI THERAPEUTICS, INC., priority 2022, published 2026)
pIC50: −log10 of the molar value.

Legend:
[1] = tested on: T47D (PI3Kα H1047R mutant) cells; test: CellTiter-Glo 2.0 luminescent cell viability assay, 72 hours, T47D cells; type: cell-based; conditions: Homo sapiens, T47D, 72 h, T47D (PI3Kα H1047R mutant) cells, CellTiter-Glo, approximately 72 hours; read-out: T47D (H1047R mutant) Viability IC50
Summary of the method: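 Viability was measured by CellTiter-Glo 2.0 luminescence after approximately 72 h of compound exposure at 37° C. Plating was 1000 cells per well the day before dosing, with ten 1:4 dilutions from a 10 µM top concentration. Values as percent of vehicle were fitted by variable-slope log(inhibitor) regression to give IC50.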

[2] = tested on: SKBR3 (PI3Kα wild type) cells; test: CellTiter-Glo 2.0 luminescent cell viability assay, 72 hours, SKBR3 cells; type: cell-based; conditions: Homo sapiens, SK-BR-3, 72 h, SKBR3 (PI3Kα wild type) cells, CellTiter-Glo, approximately 72 hours; read-out: SKBR3 (WT) Viability IC50
Summary of the method: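 Viability measured via CTG luminescence following roughly 72 hours of compound exposure at 37° C. Dosing used a 10 um starting concentration diluted 1:4 over 10 points; percent-of-vehicle data fitted with a variable-slope four-parameter model for IC50.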

Structure (SMILES)	pIC50 [1]	pIC50 [2]
Cc1cc(C(C)Nc2ccccc2C(=O)O)c2nc(N3Cc4ccccc4C3=O)c(C)c(=O)n2c1 (stereo not shown) [Example 11-362, 2-((1-(3,7-dimethyl-4-oxo-2-(1-oxoisoindolin-2-yl)-4H-pyrido[1,2-a]pyrimidin-9-yl)ethyl)amino)benzoic acid]	5.86	< 5.00
Cc1cc(C(C)Nc2c(F)cccc2C(=O)O)c2nc(N3Cc4ccccc4C3)c(C)c(=O)n2c1 (stereo not shown) [Example 11-363, 3-fluoro-2-((1-(2-(isoindolin-2-yl)-3,7-dimethyl-4-oxo-4H-pyrido[1,2-a]pyrimidin-9-yl)ethyl)amino)benzoic acid]	5.54	< 5.00
Cc1cc(C(C)Nc2cc(F)ccc2C(=O)O)c2nc(N3Cc4ccccc4C3)c(C)c(=O)n2c1 (stereo not shown) [Example 11-364, 4-fluoro-2-((1-(2-(isoindolin-2-yl)-3,7-dimethyl-4-oxo-4H-pyrido[1,2-a]pyrimidin-9-yl)ethyl)amino)benzoic acid]	5.27	< 5.00
Cc1cc([C@H](C)Nc2ccc(F)cc2C(=O)O)c2nc(N3Cc4ccccc4C3)c(C)c(=O)n2c1 [Example 11-365, (S)-5-fluoro-2-((1-(2-(isoindolin-2-yl)-3,7-dimethyl-4-oxo-4H-pyrido[1,2-a]pyrimidin-9-yl)ethyl)amino)benzoic acid]	5.48	< 5.00
Cc1cc([C@@H](C)Nc2ccc(F)cc2C(=O)O)c2nc(N3Cc4ccccc4C3)c(C)c(=O)n2c1 [Example 11-366, (R)-5-fluoro-2-((1-(2-(isoindolin-2-yl)-3,7-dimethyl-4-oxo-4H-pyrido[1,2-a]pyrimidin-9-yl)ethyl)amino)benzoic acid]	6.84	5.02
Cc1cc(C(C)Nc2ccc(F)cc2C(=O)O)c2nc(N3Cc4ccccc4C3)c(C)c(=O)n2c1 (stereo not shown) [Example 11-367, 5-fluoro-2-((1-(2-(isoindolin-2-yl)-3,7-dimethyl-4-oxo-4H-pyrido[1,2-a]pyrimidin-9-yl)ethyl)amino)benzoic acid]	6.22	< 5.00
Cc1cc(C(C)Nc2ccccc2C(=O)O)c2nc(SC3CCOC3)cc(=O)n2c1 (stereo not shown) [Example 11-370, 2-((1-(7-methyl-4-oxo-2-((tetrahydrofuran-3-yl)thio)-4H-pyrido[1,2-a]pyrimidin-9-yl)ethyl)amino)benzoic acid]	< 5.00	< 5.00
Cc1cc(C(C)Nc2ccccc2C(=O)O)c2nc(OC3CCOC3)cc(=O)n2c1 (stereo not shown) [Example 11-371, 2-((1-(7-methyl-4-oxo-2-((tetrahydrofuran-3-yl)oxy)-4H-pyrido[1,2-a]pyrimidin-9-yl)ethyl)amino)benzoic acid]	5.04	5.52
COc1cc(=O)n2cc(C)cc(C(C)Nc3ccccc3C(=O)O)c2n1 (stereo not shown) [Example 11-372, 2-((1-(2-methoxy-7-methyl-4-oxo-4H-pyrido[1,2-a]pyrimidin-9-yl)ethyl)amino)benzoic acid]	< 5.00	< 5.00
Cc1cc(C(C)Nc2ccccc2C(=O)O)c2nc(-c3cn[nH]c3)cc(=O)n2c1 (stereo not shown) [Example 11-373, 2-((1-(7-methyl-4-oxo-2-(1H-pyrazol-4-yl)-4H-pyrido[1,2-a]pyrimidin-9-yl)ethyl)amino)benzoic acid]	5.12	< 5.00
Cc1cc([C@H](C)Nc2ccccc2C(=O)O)c2nc([C@H]3CCN(C)C(=O)C3)cc(=O)n2c1 [Example 11-374, 2-(((S)-1-(7-methyl-2-((S)-1-methyl-2-oxopiperidin-4-yl)-4-oxo-4H-pyrido[1,2-a]pyrimidin-9-yl)ethyl)amino)benzoic acid]	< 5.00	< 5.00
Cc1cc([C@H](C)Nc2ccccc2C(=O)O)c2nc([C@@H]3CCN(C)C(=O)C3)cc(=O)n2c1 [Example 11-375, 2-(((S)-1-(7-methyl-2-((R)-1-methyl-2-oxopiperidin-4-yl)-4-oxo-4H-pyrido[1,2-a]pyrimidin-9-yl)ethyl)amino)benzoic acid]	< 5.00	< 5.00
Cc1cc([C@@H](C)Nc2ccccc2C(=O)O)c2nc([C@H]3CCN(C)C(=O)C3)cc(=O)n2c1 [Example 11-376, 2-(((R)-1-(7-methyl-2-((S)-1-methyl-2-oxopiperidin-4-yl)-4-oxo-4H-pyrido[1,2-a]pyrimidin-9-yl)ethyl)amino)benzoic acid]	5.22	< 5.00
Cc1cc(C(C)Nc2ccccc2C(=O)O)c2nc(C3CCN(C)C(=O)C3)cc(=O)n2c1 (stereo not shown) [Example 11-377, 2-((1-(7-methyl-2-(1-methyl-2-oxopiperidin-4-yl)-4-oxo-4H-pyrido[1,2-a]pyrimidin-9-yl)ethyl)amino)benzoic acid]	5.44	< 5.00
Cc1cc(C(C)Nc2ccccc2C(=O)O)c2nc(C3=CCNCC3)cc(=O)n2c1 (stereo not shown) [Example 11-378, 2-((1-(7-methyl-4-oxo-2-(1,2,3,6-tetrahydropyridin-4-yl)-4H-pyrido[1,2-a]pyrimidin-9-yl)ethyl)amino)benzoic acid]	< 5.00	< 5.00
CC(=O)N1CC=C(c2cc(=O)n3cc(C)cc([C@@H](C)Nc4ccccc4C(=O)O)c3n2)CC1 [Example 11-379, (R)-2-((1-(2-(1-acetyl-1,2,3,6-tetrahydropyridin-4-yl)-7-methyl-4-oxo-4H-pyrido[1,2-a]pyrimidin-9-yl)ethyl)amino)benzoic acid]	5.41	< 5.00
Cc1cc(C(C)Nc2ccccc2C(=O)O)c2nc(C3CCNCC3)cc(=O)n2c1 (stereo not shown) [Example 11-380, 2-((1-(7-methyl-4-oxo-2-(piperidin-4-yl)-4H-pyrido[1,2-a]pyrimidin-9-yl)ethyl)amino)benzoic acid]	< 5.00	< 5.00
CC(=O)N1CCC(c2cc(=O)n3cc(C)cc(C(C)Nc4ccccc4C(=O)O)c3n2)CC1 (stereo not shown) [Example 11-381, 2-((1-(2-(1-acetylpiperidin-4-yl)-7-methyl-4-oxo-4H-pyrido[1,2-a]pyrimidin-9-yl)ethyl)amino)benzoic acid]	5.26	< 5.00
Cc1cc(C(C)Nc2ccccc2C(=O)O)c2nc(N3CCc4cnn(C)c4C3)cc(=O)n2c1 (stereo not shown) [Example 11-382, 2-((1-(7-methyl-2-(1-methyl-1,4,5,7-tetrahydro-6H-pyrazolo[3,4-c]pyridin-6-yl)-4-oxo-4H-pyrido[1,2-a]pyrimidin-9-yl)ethyl)amino)benzoic acid]	5.36	< 5.00
Cc1cc(C(C)Nc2ccccc2C(=O)O)c2nc(-c3ccc(=O)n(C)c3)cc(=O)n2c1 (stereo not shown) [Example 11-383, 2-((1-(7-methyl-2-(1-methyl-6-oxo-1,6-dihydropyridin-3-yl)-4-oxo-4H-pyrido[1,2-a]pyrimidin-9-yl)ethyl)amino)benzoic acid]	5.40	< 5.00
Cc1cc(C(C)NC2CC(C(=O)O)C2)c2nc(N3CCCCC3)cc(=O)n2c1 (stereo not shown) [Example 11-385, 3-((1-(7-methyl-4-oxo-2-(piperidin-1-yl)-4H-pyrido[1,2-a]pyrimidin-9-yl)ethyl)amino)cyclobutane-1-carboxylic acid]	< 5.00	< 5.00
Cc1cc(C(C)NCCC(=O)O)c2nc(N3CCCCC3)cc(=O)n2c1 (stereo not shown) [Example 11-386]	< 5.00	< 5.00
Cc1cc(C(C)NC(C)(C)CC(=O)O)c2nc(N3CCCCC3)cc(=O)n2c1 (stereo not shown) [Example 11-387, 3-methyl-3-((1-(7-methyl-4-oxo-2-(piperidin-1-yl)-4H-pyrido[1,2-a]pyrimidin-9-yl)ethyl)amino)butanoic acid]	< 5.00	< 5.00
